Assay results: US11225466B2, “Benzothiadiazepine compounds and their use as bile acid modulators” (Albireo AB, priority 2019, dated 2022)

What was measured:
[1] = target: T1, Human IBAT (Homo sapiens, UniProt Q12908); experiment: IBAT (h/m) assay: 3H-taurocholic acid uptake in human IBAT-overexpressing cells; assay type: cell-based; conditions: 0.25 μM 3H-taurocholic acid and 5 μM cold taurocholic acid, read-out: hIBAT IC50
T1 construct: expressed in transfected cells; kept under Puromycin selection
T1 sequence (Q12908 1-348): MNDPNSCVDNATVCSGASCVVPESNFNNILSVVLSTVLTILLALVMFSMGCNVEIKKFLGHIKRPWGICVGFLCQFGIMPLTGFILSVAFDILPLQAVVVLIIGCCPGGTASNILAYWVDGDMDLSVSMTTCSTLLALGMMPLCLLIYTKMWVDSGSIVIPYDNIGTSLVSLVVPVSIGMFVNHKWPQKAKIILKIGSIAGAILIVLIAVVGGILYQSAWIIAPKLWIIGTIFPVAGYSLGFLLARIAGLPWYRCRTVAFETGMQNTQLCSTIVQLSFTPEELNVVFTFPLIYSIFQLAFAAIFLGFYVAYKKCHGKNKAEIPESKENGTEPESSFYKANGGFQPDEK
Procedure: IBAT (h/m) Assay Protocol
(§1) 10,000 cells (Human or Mouse IBAT-overexpressing cells) were seeded in 96-wells plate (Corning CLS3809) in 200 μL MEM-alpha medium (Gibco 12571-063) supplemented with 10% FBS (Gibco 10438026) containing Puromycin (Gibco A1113803) (10 μg/mL) and incubated at 37° C. in 5% CO2 for 48 hours. After incubation, media was decanted from the wells and cells were washed two times with 300 μL of basal MEM-alpha medium (FBS-free). After decanting basal MEM-alpha medium each time, plates were tapped against paper towel to ensure maximum removal of residual media.
Test inhibitor dilutions (highest test concentration being 10 μM, 3-fold serial dilution, 10 points) prepared in DMSO (Sigma D2650) were added in incubation mix (maintaining 0.2% final DMSO concentration) containing 0.25 μM 3H-taurocholic acid (ARC ART-1368) and 5 μM of cold taurocholic acid (Sigma T4009). 50 μL of incubation mix containing test inhibitors was then added to the wells (in duplicate) and the plates were incubated for 20 minutes in a CO2 incubator at 37° C. After incubation, the reaction was stopped by keeping the plates on ice water mix for 2-3 minutes and then the incubation mix was aspirated completely from the wells. The wells were washed two times with 250 μL of chilled unlabeled 1 mM taurocholic acid dissolved in HEPES (Gibco 15630080)-buffered (10 mM) HBSS (Gibco 14175079) (pH 7.4). The plates were tapped against a paper towel after every wash to ensure maximum removal of blocking buffer.
(§2) 100 μL of MicroScint-20 (PerkinElmer 6013621) was added to the wells and kept overnight at room temperature before reading the plates in TopCount NXT™ Microplate Scintillation and Luminescence Counter from PerkinElmer under 3H Test protocol (set at 120 seconds reading time per well).
All test compounds were provided in powder form at room temperature. 10 mM DMSO stocks of the test compounds were prepared, aliquoted and stored at −20° C. From the 10 mM DMSO stock of the compounds, a 3-fold serial dilution in DMSO was prepared to get a total of 10 dilutions of the test compounds. […]

[2] = Bidirectional permeability assay (Caco-2 cells); assay type: in vitro ADME; conditions: human, Caco-2, pH 7.4, 120 minutes at 37° C., FaSSIF buffer; for Papp A→B at 120 min, 10 µM: absorptive direction (A2B); for Papp B→A at 120 min, 10 µM: secretory direction (B2A)
Description: Bidirectional Permeability Assay (Caco-2 Cells)

[3] = target: T2, Human LBAT (Homo sapiens, UniProt Q14973); experiment: LBAT (h/m) assay: 3H-taurocholic acid uptake in human LBAT-overexpressing cells; assay type: cell-based; conditions: 0.3 μM 3H-taurocholic acid and 7.5 μM cold taurocholic acid, read-out: hLBAT IC50
T2 sequence (Q14973 1-349): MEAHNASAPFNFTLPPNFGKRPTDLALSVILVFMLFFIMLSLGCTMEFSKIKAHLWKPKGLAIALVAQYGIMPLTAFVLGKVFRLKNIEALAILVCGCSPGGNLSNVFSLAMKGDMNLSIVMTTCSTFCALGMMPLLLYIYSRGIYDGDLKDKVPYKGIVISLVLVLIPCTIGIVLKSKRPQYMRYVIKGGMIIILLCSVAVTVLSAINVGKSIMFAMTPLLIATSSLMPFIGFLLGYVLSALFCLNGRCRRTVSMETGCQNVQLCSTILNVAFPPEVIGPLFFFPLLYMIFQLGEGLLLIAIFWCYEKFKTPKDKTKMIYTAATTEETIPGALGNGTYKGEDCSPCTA
Procedure: LBAT (h/m) Assay Protocol
as §1, with “20,000” for “10,000”, “LBAT-overexpressing” for “IBAT-overexpressing”, “100” for “200”, “Geneticin” for “Puromycin”, “10131-027) (1 mg/mL)” for “A1113803) (10 μg/mL)”, “24” for “48”
For human LBAT, incubation mix was prepared by adding test inhibitor dilutions (3-fold serial dilution in DMSO (Sigma D2650), 10 points) in MEM-alpha (without FBS) containing 0.3 μM 3H-taurocholic acid (ARC ART-1368) and 7.5 μM cold taurocholic acid (Sigma T4009) (maintaining 0.2% final DMSO concentration). […]
as §2, with “well, with normal plate orientation). […]” for “well).”

IC50 [1] | Papp A→B at 120 min, 10 µM [2] | Papp B→A at 120 min, 10 µM [2] | IC50 [3] | Structure (SMILES)
0.0088 µM | 11 nm/s | 29 nm/s | – | CCCCC1(CC)CN(c2ccccc2)c2cc(SC)c(OCC(=O)O)cc2S(=O)(=O)N1 (stereo not drawn) [Example 1, 2-((3-butyl-3-ethyl-7-(methylthio)-1,1-dioxido-5-phenyl-2,3,4,5-tetrahydrobenzo-1,2,5-thiadiazepin-8-yl)oxy)acetic Acid]
0.0057 µM | 25.2 nm/s | 40 nm/s | 3.98 µM | CCCC[C@@]1(CC)CN(c2ccccc2)c2cc(SC)c(OCC(=O)O)cc2S(=O)(=O)N1 (single isomer, unassigned) [Example 2]
0.182 µM | – | – | 5 µM | CCCC[C@]1(CC)CN(c2ccccc2)c2cc(SC)c(OCC(=O)O)cc2S(=O)(=O)N1 (single isomer, unassigned) [Example 3]
